Tests used:
[1] = Plasma pharmacokinetics of lurbinectedin metabolites M1 and M4 (metabolite/parent ratio) with and without itraconazole
Experimental: The study consisted of two parts. In Part A, three patients were sequentially enrolled to receive Sequence 1 (TR: Test–Reference) consisting of itraconazole (200 mg […]; once-daily for 12 days) co-administered with lurbinectedin (0.8 mg/m^2, 1 h, IV infusion q3wk) (Cycle 1), followed by two consecutive cycles (Cycles 2 and 3) of lurbinectedin alone (3.2 mg/m^2, 1 h, IV infusion q3wk), with the third cycle being optional. In Part B, patients were randomized (in a ratio 1:1, using sequence a block randomization implemented with Medidata Rave Randomization and Trial Supply Management [RTSM]) to receive either Sequence 1 (TR: Test–Reference), but with lurbinectedin 0.9 mg/m^2, 1 h, IV when co-administered with itraconazole, or Sequence 2 (RT: Reference–Test) of lurbinectedin alone (Cycle 1), followed by itraconazole and lurbinectedin co-administration (Cycle 2), with lurbinectedin alone (optional Cycle 3) (see Figure 2 above).
The itraconazole dose (200 mg) was selected based on the published literature for the design of clinical drug–drug interaction studies with itraconazole. In the co-administration cycles, itraconazole was administered as 200 mg (2 × 100 mg capsules) once-daily doses in the morning after breakfast for 12 consecutive days, self-administered at home starting from […] (i.e., four days before lurbinectedin infusion) to Day 8 (i.e., seven days after lurbinectedin infusion), following recommendations from the Summary of Product Characteristics. On Day 1 (day of lurbinectedin infusion), itraconazole was given immediately prior to the start of the lurbinectedin infusion. In fact, itraconazole had to be administered after collecting the first itraconazole PK sample and before the start of lurbinectedin infusion (−15 min to −1 min). In case of lurbinectedin delay (≤2 days), itraconazole could be administered for a maximum of 14 days (Figure 6). In Sequence 1 (TR), itraconazole for self-administration and the patient’s diary were given to the patient on Day −5 with a −2/+1 daytime window (i.e., from Day −7 to Day −4). In Sequence 2 (RT), itraconazole and the patient’s diary were given to the patient on Day −5 of Cycle 2 with a −2/+1 daytime window (i.e., from Day 15 of Cycle 1 to Day −4 of Cycle 2).
The impact of itraconazole on the lurbinectedin PK profile compared with that of lurbinectedin alone was evaluated using the primary study PK endpoints: Cmax and AUC0–∞ of total plasma lurbinectedin. Other secondary PK endpoints included AUC0–t, total plasma CL, t1/2, and the volume of distribution at steady state (Vss). The following unbound parameters were also estimated: AUCu,0–∞, AUCu,0–t, Cu,max, CLu, Vss,u, and t1/2,u. Plasma PK parameters were calculated with a standard non–compartmental analysis approach using Phoenix® WinNonlin® v6.4 (Certara USA, Inc., Princeton, NJ, USA).
Serial peripheral venous blood samples for the lurbinectedin PK analysis (and its metabolites M1 and M4) were collected in Cycle 1 and Cycle 2 (Sequences 1 and 2), with a schedule of thirteen samples in all patients as follows: at pre-dose, 5 min prior to the end of the lurbinectedin infusion, and at 0.5, 1, 2, 4, 6, 24, 48, 96, 168, 241, and 337 h post-dose on Days 1, 2, 3, 5, 8, 11, and 15. Only in Part B (Sequence 2) was a blood sampling test at 505 h post-lurbinectedin dosing to be collected before the lurbinectedin infusion started on Day 1 of Cycle 3, if detectable lurbinectedin concentrations were present in the pre-infusion sample in Cycle 2 of Part A. Blood samples for the PK analysis of itraconazole (and its active metabolite, hydroxy-itraconazole) were collected in cycles with itraconazole co-administration (i.e., Cycle 1 of Part A and B [Sequence 1] and Cycle 2 of Part B [Sequence 2]) at pre-dose and at 1, 2, 4, 24, and 168 h post-itraconazole dosing on Days 1, 2, and 8.

[2] = cited from earlier work
[3] = co-administration with itraconazole compared with lurbinectedin alone
[4] = treatment LRB alone (R), dose-normalized, n = 8
[5] = lurbinectedin + itraconazole divided by lurbinectedin alone

Row | Molecule | Conversion of lurbinectedin to the metabolite [1, 3] | Metabolite/parent ratio (MPR) of AUC0–t, geometric mean (CV%) ([1]; human, in vivo) | Metabolite/parent ratio (MPR) of Cmax, geometric mean (CV%) ([1]; human, in vivo) | Metabolite/parent ratio (MPR) of AUC0–t, geometric mean (CV%) [1, 4] | Metabolite/parent ratio (MPR) of Cmax, geometric mean (CV%) [1, 4] | Reduction of the conversion of lurbinectedin to the metabolite [1, 3] | MPR of AUC0–t, least-squares geometric mean ratio [1, 5] | MPR of Cmax, least-squares geometric mean ratio [1, 5] | Mild and transient liver enzymes elevations, patients ([2]; chronic dosing) | Risk of QTc prolongation in the electrocardiogram ([2]; especially at ≤200 mg once a day, in vitro data and clinical experience)
1 | 1′,3′–dihydroxy–lurbinectedin [M1] | almost completely inhibited | 0.74 (NA) µg·h/L/mg | 0.38 (NA) µg/L/mg | 0.48 (360.01) µg·h/L/mg | 0.29 (135.88) µg/L/mg | – | – | – | – | –
2 | COc1ccc2[nH]c3c(c2c1)CCN[C@]31CS[C@@H]2c3c(OC(C)=O)c(C)c4c(c3[C@H](COC1=O)N1[C@@H]2[C@@H]2N[C@@H](Cc3cc(C)c(OC)c(O)c32)[C@@H]1O)OCO4 [M4, N–desmethyl–lurbinectedin] | – | 1.29 (209.58) µg·h/L/mg | 0.61 (47.57) µg/L/mg | 1.45 (135.58) µg·h/L/mg | 0.49 (60.3) µg/L/mg | 69% | 31.53% | 92.47% | – | –
3 | CCC(C)n1ncn(-c2ccc(N3CCN(c4ccc(OCC5COC(Cn6cncn6)(c6ccc(Cl)cc6Cl)O5)cc4)CC3)cc2)c1=O (centres unmarked) [itraconazole] | – | – | – | – | – | – | – | – | < 5% | low
